From US20240409585A1, “MACROCYCLIC IMMUNOMODULATORS” (priority 2021, published 2024) come the findings set out here.

For this test, the target named is T1, PE-labeled human PD-L1-Ig binding to Jurkat cell line over-expressing human PD-1 (Jurkat-PD-1) (Homo sapiens, UniProt Q15116).
T1 construct: expressed in transfected cells; host or cells: Jurkat
The test is described as follows: Jurkat-PD-1 Cell Binding High-Content Screening Assay (CBA): Method 1. The note with it: Jurkat-hPD-1 cells, PE-labeled PD-L1-Ig 20 nM final; read-out: Jurkat HPDL1 PD1 IC50 (uM) (Method 1).

Structures are written as SMILES. Bridge positions count the residues as written; N and C are the ends. Square brackets hold non-standard residues; d marks the D form. Peptide text beside a SMILES is read from it. * marks the point of attachment. ξ: configuration not given here. Gly(1-amidinopiperidin-4-yl) = N=C(N)N1CCC([C@H](N)C(=O)O)CC1; Phe(4-CONH2) = NC(=O)c1ccc(C[C@H](N)C(=O)O)cc1; Phe(4-COOH) = N[C@@H](Cc1ccc(C(=O)O)cc1)C(=O)O; Bip = N[C@@H](Cc1ccc(-c2ccccc2)cc1)C(=O)O; Phe(3-Me) = Cc1cccc(C[C@H](N)C(=O)O)c1; Val(3-OH) = CC(C)(O)[C@H](N)C(=O)O; hArg = N=C(N)NCCCC[C@H](N)C(=O)O; 2Pal = N[C@@H](Cc1ccccn1)C(=O)O; 3Pal = N[C@@H](Cc1cccnc1)C(=O)O; Cha = N[C@@H](CC1CCCCC1)C(=O)O; Cit = NC(=O)NCCC[C@H](N)C(=O)O; Thr(3ξ) = CC(O)[C@H](N)C(=O)O; NMeNle = CCCC[C@H](NC)C(=O)O; ξTle = CC(C)(C)C(N)C(=O)O; Carboxymethyl = O=C(O)C*; NMeA = CN[C@@H](C)C(=O)O; Nle = CCCC[C@H](N)C(=O)O; Orn = NCCC[C@H](N)C(=O)O; Dab = NCC[C@H](N)C(=O)O; Dap = NC[C@H](N)C(=O)O

T1 sequence (Q15116 25-288): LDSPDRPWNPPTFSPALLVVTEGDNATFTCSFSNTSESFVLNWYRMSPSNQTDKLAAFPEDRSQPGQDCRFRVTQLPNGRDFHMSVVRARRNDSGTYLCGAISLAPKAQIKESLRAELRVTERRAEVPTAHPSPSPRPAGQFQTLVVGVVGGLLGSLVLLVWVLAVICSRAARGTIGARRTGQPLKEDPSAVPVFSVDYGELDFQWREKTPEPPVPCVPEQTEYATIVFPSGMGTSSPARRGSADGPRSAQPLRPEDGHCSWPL

Consider `CC(C)C[C@@H]1NC(=O)[C@H](CCCNC(=N)N)NC(=O)[C@@H](CC(C)C)NC(=O)[C@H](C)N(C)C(=O)[C@H](CCC(=O)O)NC(=O)[C@H](Cc2ccc(-c3ccccc3)cc2)NC(=O)[C@H](C(C)C)NC(=O)[C@H](Cc2c[nH]c3ccccc23)NC(=O)[C@H](CC(=O)O)NC(=O)[C@H](Cc2ccc(O)cc2)NC(=O)[C@H](CC(N)=O)NC(=O)CSC[C@@H](C(=O)N[C@@H](C)C(N)=O)NC(=O)[C@H](CO)NC(=O)[C@H](C(C)C)NC1=O` [Compound 1256] ({CH2CO}-NYDWV[Bip]E[NMeA][dL]RLVSCA-NH2; thioether N-14), for which the IC50 came to 0.06 µM. On to `CCCC[C@H]1C(=O)N[C@@H](Cc2ccc(C(=O)O)cc2)C(=O)N[C@@H](CC(=O)O)C(=O)N[C@@H](Cc2c[nH]c3ccccc23)C(=O)N[C@@H](C(C)C)C(=O)N[C@@H](Cc2ccc(-c3ccccc3)cc2)C(=O)N[C@@H](C(C)O)C(=O)N(C)[C@@H](C)C(=O)N[C@H](CC(C)C)C(=O)N[C@@H](CCN)C(=O)N[C@@H](CC2CCCCC2)C(=O)N[C@@H](C(C)C)C(=O)N[C@@H](C(C)O)C(=O)N[C@H](C(=O)N[C@@H](CCN)C(N)=O)CSCC(=O)N1C` (stereo partly drawn) [Compound 2206] ({CH2CO}-[NMeNle][Phe(4-COOH)]DWV[Bip][Thr(3ξ)][NMeA][dL][Dab][Cha]V[Thr(3ξ)]C[Dab]-NH2; thioether N-14), for which the IC50 worked out at 0.04 µM. Next, `Cc1cccc(C[C@@H]2NC(=O)[C@H](CC(=O)O)NC(=O)[C@H](Cc3ccc(OCC(=O)O)cc3)NC(=O)[C@H](CN)NC(=O)CSC[C@@H](C(N)=O)NC(=O)[C@H]([C@@H](C)O)NC(=O)[C@H](C(C)C)NC(=O)[C@H](CC3CCCCC3)NC(=O)[C@H](CCN)NC(=O)[C@@H](CC(C)C)NC(=O)[C@H](C)N(C)C(=O)[C@H](Cc3ccc(OCC(=O)O)cc3)NC(=O)[C@H](Cc3ccc(-c4ccccc4)cc3)NC(=O)[C@H](Cc3ccc(OCC(=O)O)cc3)NC2=O)c1` [Compound 1650] ({CH2CO}-[Dap]Y(Carboxymethyl)D[Phe(3-Me)]Y(Carboxymethyl)[Bip]Y(Carboxymethyl)[NMeA][dL][Dab][Cha]VTC-NH2; thioether N-14): 0.08 µM.

Take `CC(C)C[C@@H]1NC(=O)[C@H](CCN)NC(=O)[C@@H](CC(C)C)NC(=O)[C@H](C)N(C)C(=O)[C@H](CCCNC(N)=O)NC(=O)[C@H](Cc2ccc(-c3ccccc3)cc2)NC(=O)[C@H](C(C)C)NC(=O)[C@H](Cc2c[nH]c3ccccc23)NC(=O)[C@H](CC(=O)O)NC(=O)[C@H](Cc2ccc(O)cc2)NC(=O)[C@H](CCCCNC(=N)N)NC(=O)CSC[C@@H](C(=O)N[C@@H](C)C(N)=O)NC(=O)[C@H]([C@@H](C)O)NC(=O)[C@H](C(C)C)NC1=O` [Compound 1349] ({CH2CO}-[hArg]YDWV[Bip][Cit][NMeA][dL][Dab]LVTCA-NH2; thioether N-14): the IC50 stood at 0.06 µM.

Consider `CC(C)C[C@@H]1NC(=O)[C@H](CCCN)NC(=O)[C@@H](CC(C)C)NC(=O)[C@H](C)N(C)C(=O)[C@H](CCC(=O)O)NC(=O)[C@H](Cc2ccc(-c3ccccc3)cc2)NC(=O)[C@H](C(C)C)NC(=O)[C@H](Cc2c[nH]c3ccccc23)NC(=O)[C@H](CC(=O)O)NC(=O)[C@H](Cc2ccc(O)cc2)NC(=O)[C@H](CC(N)=O)NC(=O)CSC[C@@H](C(=O)N[C@@H](C)C(N)=O)NC(=O)[C@H]([C@@H](C)O)NC(=O)[C@H](C(C)C)NC1=O` [Compound 1239] ({CH2CO}-NYDWV[Bip]E[NMeA][dL][Orn]LVTCA-NH2; thioether N-14), for which the IC50 worked out at 0.08 µM. For `CC(C)C[C@@H]1NC(=O)[C@H](Cc2c[nH]c3ccccc23)NC(=O)[C@H](CC(=O)O)NC(=O)[C@H](Cc2ccc(O)cc2)NC(=O)[C@H](Cc2ccccc2)NC(=O)CSC[C@@H](C(=O)N[C@@H](C)C(N)=O)NC(=O)[C@H](CO)NC(=O)[C@H](C(C)C)NC(=O)[C@H](CC(C)C)NC(=O)[C@H](CC(=O)O)NC(=O)C(C(C)(C)C)NC(=O)[C@H](C)N(C)C(=O)[C@H](C(C)C)NC(=O)[C@H](Cc2ccc(-c3ccccc3)cc2)NC1=O` (stereo partly drawn) [Compound 1827] ({CH2CO}-FYDWL[Bip]V[NMeA][ξTle]DLVSCA-NH2; thioether N-14), the IC50 worked out at 0.79 µM. Consider `CCCC[C@@H]1NC(=O)[C@H](CCCNC(=N)N)NC(=O)[C@@H](CC(C)C)NC(=O)[C@H](C)N(C)C(=O)[C@H]([C@@H](C)CC)NC(=O)[C@H](Cc2ccc(-c3ccccc3)cc2)NC(=O)[C@H](C(C)C)NC(=O)[C@H](Cc2c[nH]c3ccccc23)NC(=O)[C@H](CC(=O)O)NC(=O)[C@H](Cc2ccc(O)cc2)NC(=O)[C@H](Cc2ccc(OCC(=O)O)cc2)NC(=O)CSC[C@@H](C(=O)N[C@@H](C)C(N)=O)NC(=O)[C@H]([C@@H](C)O)NC(=O)[C@H](C(C)C)NC1=O` [Compound 1497] ({CH2CO}-Y(Carboxymethyl)YDWV[Bip]I[NMeA][dL]R[Nle]VTCA-NH2; thioether N-14), for which the IC50 amounted to 0.2 µM.

For the compound `CC[C@H](C)[C@@H]1NC(=O)[C@H](Cc2ccc(-c3ccccc3)cc2)NC(=O)[C@H](C(C)C)NC(=O)[C@H](Cc2c[nH]c3ccccc23)NC(=O)[C@H](CC(=O)O)NC(=O)[C@H](Cc2ccc(O)cc2)NC(=O)[C@H](CN)NC(=O)CSC[C@@H](C(=O)N[C@@H](C)C(N)=O)NC(=O)[C@H]([C@@H](C)O)NC(=O)[C@H](C(C)C)NC(=O)[C@H](CC2CCCCC2)NC(=O)[C@H](CCCNC(=N)N)NC(=O)[C@@H](CC(C)C)NC(=O)[C@H](C)N(C)C1=O` [Compound 1492] ({CH2CO}-[Dap]YDWV[Bip]I[NMeA][dL]R[Cha]VTCA-NH2; thioether N-14), the IC50 came to 0.04 µM. Next, `CC(C)C[C@@H]1NC(=O)[C@H](CCN)NC(=O)[C@@H](CC(C)C)NC(=O)[C@H](C)N(C)C(=O)[C@H](CCCNC(N)=O)NC(=O)[C@H](Cc2ccc(-c3ccccc3)cc2)NC(=O)[C@H](C(C)C)NC(=O)[C@H](Cc2c[nH]c3ccccc23)NC(=O)[C@H](CC(=O)O)NC(=O)[C@H](Cc2ccc(O)cc2)NC(=O)[C@H](C2CCN(C(=N)N)CC2)NC(=O)CSC[C@@H](C(=O)N[C@@H](C)C(N)=O)NC(=O)[C@H](C(C)O)NC(=O)[C@H](C(C)C)NC1=O` (stereo partly drawn) [Compound 2038] ({CH2CO}-[Gly(1-amidinopiperidin-4-yl)]YDWV[Bip][Cit][NMeA][dL][Dab]LV[Thr(3ξ)]CA-NH2; thioether N-14): 0.07 µM; `CC(C)C[C@@H]1NC(=O)[C@H](Cc2c[nH]c3ccccc23)NC(=O)[C@H](CC(=O)O)NC(=O)[C@H](Cc2ccc(C(=O)O)cc2)NC(=O)[C@H](Cc2ccc(OCC(=O)O)cc2)NC(=O)CSC[C@@H](C(=O)N[C@H](C)C(N)=O)NC(=O)[C@H](CCC(=O)O)NC(=O)[C@H](C(C)(C)O)NC(=O)[C@H](CC2CCCCC2)NC(=O)[C@H](CCN)NC(=O)[C@@H](CC(C)C)NC(=O)[C@H](C)N(C)C(=O)[C@H](C(C)(C)O)NC(=O)[C@H](Cc2ccc(-c3ccccc3)cc2)NC1=O` [Compound 1715] ({CH2CO}-Y(Carboxymethyl)[Phe(4-COOH)]DWL[Bip][Val(3-OH)][NMeA][dL][Dab][Cha][Val(3-OH)]EC[dA]-NH2; thioether N-14): 0.06 µM. The result for `CC(C)C[C@@H]1NC(=O)[C@H](Cc2c[nH]c3ccccc23)NC(=O)[C@H](CC(=O)O)NC(=O)[C@H](Cc2ccc(O)cc2)NC(=O)[C@H](Cc2ccccc2)NC(=O)CSC[C@@H](C(=O)N[C@@H](C)C(N)=O)NC(=O)[C@H](CO)NC(=O)[C@H](C(C)C)NC(=O)[C@H](CC(C)C)NC(=O)[C@H](CC(N)=O)NC(=O)[C@@H](CC(C)C)NC(=O)[C@H](C)N(C)C(=O)[C@H](CCCNC(=N)N)NC(=O)[C@H](Cc2ccc(-c3ccccc3)cc2)NC1=O` [Compound 1775] ({CH2CO}-FYDWL[Bip]R[NMeA][dL]NLVSCA-NH2; thioether N-14) reads 0.05 µM; that for `CC(C)C[C@@H]1NC(=O)[C@H](Cc2c[nH]c3ccccc23)NC(=O)[C@H](CC(=O)O)NC(=O)[C@H](Cc2ccc(C(N)=O)cc2)NC(=O)[C@H](Cc2ccccc2)NC(=O)CSC[C@@H](C(=O)N[C@@H](C)C(N)=O)NC(=O)[C@H](CO)NC(=O)[C@H](C(C)C)NC(=O)[C@H](CC(C)C)NC(=O)[C@H](CC(N)=O)NC(=O)[C@@H](C)NC(=O)[C@H](C)N(C)C(=O)[C@H](C(C)C)NC(=O)[C@H](Cc2ccc(-c3ccccc3)cc2)NC1=O` [Compound 1740] ({CH2CO}-F[Phe(4-CONH2)]DWL[Bip]V[NMeA][dA]NLVSCA-NH2; thioether N-14), 0.02 µM. Next, `CC(C)C[C@@H]1NC(=O)[C@H](Cc2c[nH]c3ccccc23)NC(=O)[C@H](CC(=O)O)NC(=O)[C@H](Cc2ccc(O)cc2)NC(=O)[C@H](Cc2ccccc2)NC(=O)CSC[C@@H](C(=O)NCC(N)=O)NC(=O)[C@H](CO)NC(=O)[C@H](C(C)C)NC(=O)[C@H](CC(C)C)NC(=O)[C@H](CC(N)=O)NC(=O)[C@H](CCCNC(N)=O)NC(=O)[C@H](C)N(C)C(=O)[C@H](C(C)C)NC(=O)[C@H](Cc2ccc(-c3ccccc3)cc2)NC1=O` [Compound 1812] ({CH2CO}-FYDWL[Bip]V[NMeA][Cit]NLVSCG-NH2; thioether N-14): 0.28 µM; `CC(C)C[C@@H]1NC(=O)[C@H](CCCNC(=N)N)NC(=O)[C@@H](CC(C)C)NC(=O)[C@H](C)N(C)C(=O)[C@H](CCCNC(=N)N)NC(=O)[C@H](Cc2ccc(-c3ccccc3)cc2)NC(=O)[C@H](C(C)C)NC(=O)[C@H](Cc2c[nH]c3ccccc23)NC(=O)[C@H](CC(=O)O)NC(=O)[C@H](Cc2ccc(O)cc2)NC(=O)[C@H](Cc2ccccc2)NC(=O)CSC[C@@H](C(=O)N[C@@H](C)C(N)=O)NC(=O)[C@H]([C@@H](C)O)NC(=O)[C@H](C(C)C)NC1=O` [Compound 1048] ({CH2CO}-FYDWV[Bip]R[NMeA][dL]RLVTCA-NH2; thioether N-14): 0.06 µM.

With `CC(C)C[C@@H]1NC(=O)[C@H](CCN)NC(=O)[C@@H](CC(C)C)NC(=O)[C@H](C)N(C)C(=O)[C@H](CCCNC(N)=O)NC(=O)[C@H](Cc2ccc(-c3ccccc3)cc2)NC(=O)[C@H](C(C)C)NC(=O)[C@H](Cc2c[nH]c3ccccc23)NC(=O)[C@H](CC(=O)O)NC(=O)[C@H](Cc2ccccn2)NC(=O)[C@H](Cc2cccnc2)NC(=O)CSC[C@@H](C(=O)N[C@@H](C)C(N)=O)NC(=O)[C@H]([C@@H](C)O)NC(=O)[C@H](C(C)C)NC1=O` [Compound 1334] ({CH2CO}-[3Pal][2Pal]DWV[Bip][Cit][NMeA][dL][Dab]LVTCA-NH2; thioether N-14), the IC50 was found to be 0.63 µM.
